Reference: patent US7138543B2, “Thiolalkyl benzoic acid derivatives” (Guilford Pharmaceuticals Inc., priority 2001, dated 2006)

Experiments:
STZ-diabetic rats = assay: Neuropathic pain in STZ model (Hargreaves thermal nociception); assay type: in vivo, Sprague-Dawley rats; settings: 10 mg/kg i.p. daily, started 45 days post-STZ
Description: In vivo Assay of NAALADase Inhibitors on Neuropathic Pain in STZ Model
Male Sprague-Dawley rats (200–225 g) were rendered diabetic by intravenous administration of streptozotocin (“STZ”, 70 mg/kg in phosphate buffered saline). Diabetic animals were divided into five groups: one group receiving Compound A (10 mg/kg or 1 mg/kg), Compound D (10 mg/kg or 1 mg/kg) or vehicle. Another group of animals (non-STZ treated) served as non-diabetic controls. Drug/vehicle treatment was started in diabetic animals 45 days post-STZ administration. STZ-induced diabetic rats were tested for sensitivity to a heat source as soon as blood glucose levels rose to 320 mg/dl or above (30 days post STZ). The rats were then acclimated to a Hargreaves apparatus and thermal nociception was monitored using an infrared heat source directed into the dorsal surface of the hindpaw, and the time taken for the animal to remove its paw noted to the nearest 0.1 seconds (see Hargreaves et al., J. Biol. Chem. (1988) 263(36):19392–7 for a description of the experimental method). The intensity of the beam source was adjusted such that the mean latency for control animals (non-STZ treated) was approximately 10 seconds. Each animal was tested 8 times and the mean difference score (between mean non-diabetic control latency and mean diabetic latency) are graphically presented in FIGS. 7A and 7B.

BB/W diabetic rats = assay: Progression of neuropathic pain in BB/W model (withdrawal latency); assay type: in vivo; settings: 10 mg/kg i.p. daily; vs diabetic vehicle-treated rats, from 4 weeks through six months of treatment, FIG. 11
Text: In vivo Assay of NAALADase Inhibitors on Progression of Neuropathic Pain in BB/W Models
Male BB/W rats (BRI, Mass) spontaneously develop a cell mediated autoimmune destruction of pancreatic B cells, resulting in onset of insulin-dependent (Type I) diabetes (Awata, Guberski, Endocrinology (1995) 136(12):5731–5). […] This renders them valuable for experimental trials of new compounds for future treatments of this major disorder. In the present study, Compound A and Compound D were examined for their ability to alter the progression of diabetic neuropathy. The rats received daily injection of Compound A or Compound D (10 mg/kg i.p.) or vehicle, starting at the onset of diabetes (hyperglycemia) and up to 6 months thereafter. Another group of non-diabetic rats also receiving vehicle were tested. All animals were continuously monitored for body weight, urine volume, blood sugar and glycated haemoglobin. In the first month of the study, all animals were tested for thermal nociception in a Hargreaves apparatus, weekly. After the first month this was done biweekly and then monthly. The testing consists of directing an infrared heat source onto the dorsal surface of the rat hindpaw and noting the time taken for the animal to remove its paw (see Hargreaves et al., J. Biol. Chem. (1988) 263(36):19392–7 for a description of the experimental method). […]

[1] = test system: rats with unilaterally transected optic nerve; assay: Optic nerve transection (optic nerve fiber counting); assay type: in vivo, Rattus norvegicus; settings: for FIBER NUMBER: 10 mg/kg daily intraperitoneal
Description: All experiments complied with the Association for Research in Vision and Ophthalmology Statement for the Use of Animals in Ophthalmic and Vision Research. 82 male Brown Norway rats (Rattus norvegicus), each weighing approximately 250 gm, were treated using procedures approved by the Animal Care Committee of the Johns Hopkins University School of Medicine. The rats were housed with a 12 hour light/12 hour dark cycle and fed ad libitum.
OPTIC NERVE TRANSECTION: The optic nerve was transected unilaterally in 26 rats under intraperitoneal pentobarbital anesthesia. The conjunctiva was opened with scissors and the optic nerve exposed by traction on extraocular muscles. The transection was performed with microscissors 5 mm posterior to the globe, with specific attention to avoidance of injury to major ocular blood vessels. Immediately after transection, the retina was examined ophthalmoscopically to assure that the retinal arterial blood supply was not disrupted. The conjunctiva was closed with absorbable suture and the eye dressed with antibiotic ointment. Beginning on the day of transection, the rats were treated daily with intraperitoneal injections of either a vehicle (9 rats with 50 mM HEPES-buffered saline) or a NAALADase inhibitor (8 rats with 10 mg/kg of Compound A and 9 rats with 10 mg/kg of Compound B). 5 saline treated rats, 3 Compound A treated rats, and 4 Compound B treated rats were sacrificed at 2 weeks, and the remaining rats at 4 weeks, after transection.
OPTIC NERVE COUNTING: The rats were sacrificed by exsanguination under deep pentobarbital anesthesia. They were perfused through the heart with 2% paraformaldehyde/2% glutaraldehyde in 0.1 M phosphate buffer, pH 7.2, and the eyes with attached optic nerves were removed. A cross-section of the optic nerve from both experimental (glaucoma or transection) and control eyes was removed 1.5 mm posterior to the globe, 1 mm in thickness, and post-fixed in 2% osmium tetroxide in buffer. These were processed into epoxy resin, sectioned at 1 micron and stained with toluidine blue.
The area of the optic nerve cross-section was measured by outlining its outer border at 10× magnification on an image analysis system (Universal Imaging Corp., Westchester, Pa.) with Synsys digital camera and Metamorph software. Three area measurements were taken and the mean value was determined. To measure the density and fiber diameter distributions, images were captured with a 100× phase contrast objective from 10 different areas of each nerve. These were edited to eliminate non-neural objects and the size of each axon internal to the myelin sheath (its minimum diameter) and the density of axons/square mm were calculated for each image and nerve. The mean density was multiplied by total nerve area to yield fiber number for each nerve. The total fiber number in glaucoma or transection nerves was compared to the normal, fellow eye of each rat to yield a percent loss value. The number of axons counted among the 10 images was an approximately 20% sample of the 80–90,000 axons in normal rat nerves. The person measuring axon number was masked to the protocol conducted on the nerves.

[2] = 2 weeks survival after transection
[3] = 4 weeks survival after transection

O=C(O)CCC(CP(=O)(O)Cc1c(F)c(F)c(F)c(F)c1F)C(=O)O (stereo not shown) [Compound A]
hyperalgesic response (withdrawal latency difference score) (STZ-diabetic rats): completely reversed | withdrawal latency (BB/W diabetic rats): longer withdrawal latencies | remaining axons relative to the saline-treated rats ([1]; 2 weeks after transection): 3 times | PERCENT DIFFERENCE in fiber number [1, 2]: 65.3 ± 30.9% | FIBER NUMBER [1, 2]: 26,426 ± 23,025 | PERCENT DIFFERENCE in fiber number [1, 3]: 82.4 ± 8.9% | FIBER NUMBER [1, 3]: 13,599 ± 7,868
